Laboratory results: PMC9775310, “Anticancer, Antimicrobial, and Antioxidant Activities of Organodiselenide-Tethered Methyl Anthranilates” (Biomolecules, 2022)
In brackets after ≈: the same amount, converted by molar mass. Read-outs that look alike come from different tables or passages of the source.

What was measured:
Staphylococcus aureus [1] = experiment: Agar well diffusion assay, S. aureus; format: cell-based; details: ratio of inhibition zone to that of positive control
Experimental: (§1) According to the reported method, the OSe agents’ antimicrobial properties were estimated against Staphylococcus aureus (S. aureus), Escherichia coli (E. coli), and Candida albicans (C. albicans) microbial strains using the agar well diffusion assay. In addition, the MICs (in […]) were also recorded via the microdilution method following the reported procedure. Experimental details can be found in the Supplementary Materials Section S1 [16, 18].
(§2) The promising anticancer activities manifested by the OSe compounds encourage us to further evaluate their respective antimicrobial activity against a panel of gram-negative bacteria (e.g., E. coli) and the gram-positive bacteria (e.g., S. aureus) as well as a fungal strain (C. albicans) using the method of agar diffusion. The clotrimazole antifungal and the ampicillin antibacterial drugs were used as the positive controls. […]
(§3) 1.1.2. The antimicrobial activity
(§4) The antimicrobial activities of the OSe compounds were evaluated against C. albicans yeast as well as E. coli gram-negative and S. aureus gram-positive bacteria employing the agar well diffusion assay [ 4 ] .
(§5) Briefly, a concentration of 1 mM was prepared for each compound by dissolving in DMSO.
(§6) Paper discs of standard size […] were sterilized in an autoclave and soaked in 9 µL of the test compounds, and placed in the Petri dishes, which in turn contain a nutrient media (agar 9 g, peptone 5 g, and beef extract 3 g) seeded with the dedicated strain. Incubation lasted for 13 h at 36 0C. Experiments were replicated three times and the antifungal clotrimazole and antibiotic ampicillin were used as standards. The % activity index for the complex was determined and depicted in table 2. […]

Staphylococcus aureus [2] = experiment: Agar well diffusion assay, S. aureus; format: cell-based; details: read-out: S. aureus ZID
Escherichia coli [3] = experiment: Agar well diffusion assay, E. coli; format: cell-based; details: read-out: E. coli ZID
Staphylococcus aureus [4] = experiment: MIC by microdilution method, S. aureus; format: cell-based; details: read-out: MIC S. aureus
Experimental: as §1
(§7) In general, C. Albicans fungus and S. aureus gram-positive bacteria were more sensitive than gram-negative bacteria toward the OSe compounds. […]
(§8) Briefly, a concentration of 1 mM was prepared for each compound by dissolving in DMSO. […]
(§9) Furthermore, the MICs (in µM) were determined by the microdilution method according to the
1.1.3. […]

Escherichia coli [5] = experiment: Agar well diffusion assay, E. coli; format: cell-based; details: ratio of inhibition zone to that of positive control
Experimental: as §1, §2, §3, §4, §5, §6

Escherichia coli [6] = experiment: MIC by microdilution method, E. coli; format: cell-based; details: read-out: MIC E. coli
Experimental: as §1, §7, §8, §9
1.1.3. […]

[7] = DPPH radical scavenging bioassay; details: for DPPH radical scavenging activity: 200 µL, 1 mM in MeOH, DPPH 400 µL, 30 min, 517 nm; for IC50: dose needed to decrease the absorbance by 50%
Excerpt: (§10) The DPPH and ABTS in vitro bioassays were used to assess the OSe antioxidant activities following the reported method. Experimental details can be found in the Supplementary Materials Section S1.
(§11) The redox modulation activities of the OSe compounds were extensively explored over the last decade owing to their chemopreventive and antioxidant potency. The latter is usually investigated by the ABTS and DPPH in vitro tests employing vitamin C as the positive control. The OSe compound’s magnitude estimated the antioxidant potential to decolorize the distinctive colors of the DPPH^. and ABTS^. radicals at 517 nm and 734 nm, respectively (Figure 2).
(§12) Figure 2 The OSe compounds redox activities assessment using the ABTS and DPPH experiments. All tests are mean ± SD. ABTS experiment: absorbance was followed at 734 nm for OSe compounds (50 µL, 1 mM in MeOH) and ABTS solution (60 µL). DPPH experiment: Absorbance was monitored after 30 min at 517 nm for OSe compounds (200 µL, 1 mM in MeOH) and DPPH (400 µL). […]
1.1.3. The antioxidant activity
1.1.3.1. The DPPH bioassay
The hydrogen atom or electron donation ability of the corresponding compounds was measured by estimating the bleaching of the purple color of a methanolic solution of DPPH [5]. This spectrophotometric assay uses stable DPPH. reagent. The sample was prepared by adding […] of the OSe compounds (1 mM in methanol) to […] DPPH in methanol. After 30 min of incubation in the dark, the absorbance was read against a blank at […]. Ascorbic acid (vitamin C) and ebselen were used as standard antioxidants (positive control). A blank sample was run without DPPH. A negative control sample was run using methanol instead of the sample. The radical scavenging activity was […]
using the following equation:
Inhibition%= (Ablank-Asample)/(Ablank)*100. […]

[8] = ABTS radical scavenging bioassay; details: for IC50: dose needed to decrease the absorbance by 50%; for ABTS radical scavenging activity: 50 µL, 1 mM in MeOH, ABTS solution 60 µL, 734 nm
Excerpt: as §10, §11, §12
1.1.3.2. The ABTS bioassay
The antioxidant activity of the investigated compounds was assessed using 2,2’-azino-bis(3-ethylbenzothiazoline-6-sulphonic acid (ABTS) method. The radical cation derived from ABTS was prepared by the reaction of 60 mM ABTS solution with 0.3 M manganese dioxide solution in 0.1M phosphate buffer, pH 7. Then, the mixture was shaken, centrifuged, filtered, and the absorbance (Acontrol) of the resulting green-blue solution (ABTS radical solution) was measured at wavelength 734 nm. Then, […] of 1 mg/ml test compound in phosphate-buffered methanol was added. The absorbance (Atest) was measured. The reduction in color intensity was expressed as % inhibition. The % inhibition for each compound is calculated from the following equation
Inhibition% = (Acontrol-Asample)/(Acontrol)*100
Ascorbic acid (vitamin C) was used as a standard antioxidant (positive control). A blank sample was run without ABTS and using MeOH/phosphate buffer (1:1) instead of the sample. A negative control sample was run with MeOH/phosphate buffer (1:1) instead of a tested compound.

HepG2 cells = experiment: MTT assay, antiproliferative activity, HepG2 liver carcinoma cells; format: cell-based; details: Homo sapiens, HepG2, 24 h, read-out: HepG2 IC50
Experimental: (§13) The anticancer activity of the OSe was performed using the MTT assay against liver (HepG2) and breast (MCF-7) carcinoma cells, as well as normal WI-38 cells following the reported method. Experimental details can be found in the Supplementary Materials Section S1.
Accordingly, the anticancer properties of the OSe hybrids were assessed against two cancer cell lines, i.e., HepG2 and MCF-7 cells. Furthermore, their corresponding cytotoxicity was also estimated against the immortalized lung WI-38 fibroblasts employing the MTT assay. The Adriamycin cancer drug was used as the positive control. The concentration inhibition, 50%, needed to kill half of the cells (IC50) was estimated from (concentration-response plots) and tabulated in Table 1.
(§14) 1.1. The biological assays
(§15) 1.1.1. The anticancer activity
(§16) The breast adenocarcinoma (MCF-7), Hepatocellular carcinoma (HEPG-2), and normal fibroblast (WI-38) cells were obtained from ATCC via Holding company for biological products and vaccines (VACSERA), Cairo, Egypt. The reagents […] medium, MTT, DMSO, and fetal bovine serum was obtained from Sigma Aldrich. Dulbecco’s modified Eagle’s medium was used as the culture medium for the cells, and the cytotoxicity was evaluated using the reported MTT assay. Doxorubicin was used as the positive reference, and the IC50 values were obtained from the corresponding dose-response curve.
(§17) This colorimetric assay is based on converting the yellow tetrazolium bromide (MTT) to a purple formazan derivative by mitochondrial succinate dehydrogenase in viable cells. Cell lines were cultured in […] medium with 10% fetal bovine serum. Antibiotics added were 100 units/ml penicillin and 100µg/ml streptomycin at 37 C in a 5% Co2 incubator. The cell lines were seeded in a 96-well plate at a density of 1.0x10^4 cells/well. at 37 C for 48 h under 5% […]
Finally, dimethyl sulfoxide (DMSO) in the volume of 100 µl is added to each well to dissolve the purple formazan formed. The colorimetric assay is measured and recorded at an absorbance of 570 nm using a plate reader (EXL 800, USA). […]

Candida albicans [9] = experiment: Agar well diffusion assay, C. albicans; format: cell-based; details: read-out: C. Albicans ZID
MCF-7 cells = experiment: MTT assay, antiproliferative activity, MCF-7 breast carcinoma cells; format: cell-based; details: Homo sapiens, MCF7, 24 h, read-out: MCF7 IC50
Experimental: as §13
(§18) Accordingly, the anticancer properties of the OSe hybrids were assessed against two cancer cell lines, i.e., HepG2 and MCF-7 cells. Furthermore, their corresponding cytotoxicity was also estimated against the immortalized lung WI-38 fibroblasts employing the MTT assay. The Adriamycin cancer drug was used as the positive control.
as §14, §15, §16, §17
(§19) Finally, dimethyl sulfoxide (DMSO) in the volume of 100 µl is added to each well to dissolve the purple formazan formed. […]

Candida albicans [10] = experiment: Agar well diffusion assay, C. albicans; format: cell-based; design: concentration or dose not given beside the values; details: ratio of inhibition zone to that of positive control
Experimental: as §1, §2, §3, §4, §5, §6

WI-38 cells = experiment: MTT assay, cytotoxicity against normal WI-38 fibroblasts; format: cell-based; details: Homo sapiens, WI-38, 24 h, read-out: WI38 IC50
Experimental: as §13, §18, §14, §15, §16, §17, §19

Candida albicans [11] = experiment: MIC by microdilution method, C. albicans; format: cell-based; details: read-out: MIC C. Albicans
Experimental: as §1, §7, §8, §9
1.1.3. […]

[12] = inhibition zone diameter, disks (6 mm) soaked with 20 μM

Compound	S. aureus IA% (activity index) (Staphylococcus aureus [1])	E. coli IA% (activity index) (Escherichia coli [5])	DPPH radical scavenging activity [7]	IC50 (HepG2 cells)	zone of inhibition at 20 µM (Candida albicans [9])	zone of inhibition at 20 µM (Staphylococcus aureus [2])	zone of inhibition at 20 µM (Escherichia coli [3])	IC50 (MCF-7 cells)	ABTS radical scavenging activity [8]	C. Albicans IA% (activity index) (Candida albicans [10])	IC50 (WI-38 cells)	other results
CC1(C)S[C@@H]2[C@H](NC(=O)[C@H](N)c3ccccc3)C(=O)N2[C@H]1C(=O)O [Ampicillin, reference compound]	100%	100%										zone of inhibition at 20 µM (Staphylococcus aureus [2]; [12]): 21 mm; zone of inhibition at 20 µM (Escherichia coli [3]; [12]): 23 mm; MIC (Staphylococcus aureus [4]; microdilution): 1 µM (≈ 0.349 µg/mL); MIC (Escherichia coli [6]; microdilution): 0.5 µM (≈ 0.175 µg/mL)
O=C1O[C@H]([C@@H](O)CO)C(O)=C1O [Vitamin C, Ascorbic acid, reference compound]			95%									IC50 [7]: 19.18 ± 0.13 µM; IC50 [8]: 28.16 ± 0.19 µM
COC(=O)c1cc([Se]C#N)ccc1N [Compound 4, Methyl 2-amino-5-selenocyanatobenzoate]	76.2%	60.9%	81%	11.2 ± 1 µM	18 mm	16 mm	14 mm	23.4 ± 1.8 µM	73%	75%	52.6 ± 3.1 µM	melting point: 118 to 119 °C
COC(=O)c1cc([Se][Se]c2ccc(N)c(C(=O)OC)c2)ccc1N [Compound 5, dimethyl 5,5′-diselanediylbis(2-aminobenzoate)]	85.7%	82.6%	92%	7.08 ± 0.6 µM	21 mm	18 mm	19 mm	9.89 ± 0.7 µM	86%	87.5%	35.9 ± 2.3 µM	
CCOC(=O)C(C#N)=NNc1ccc([Se][Se]c2ccc(NN=C(C#N)C(=O)OCC)c(C(=O)OC)c2)cc1C(=O)OC [Compound 6, dimethyl 5,5′-diselanediylbis(2-(2-(1-cyano-2-ethoxy-2-oxoethylidene) hydrazinyl) benzoate)]	76.2%	69.6%	85%	16.2 ± 1.2 µM	17 mm	16 mm	16 mm	15.9 ± 1.2 µM	69%	70.8%	42.5 ± 2.6 µM	melting point: 105 to 106 °C
Clc1ccccc1C(c1ccccc1)(c1ccccc1)n1ccnc1 [Clotrimazole, reference compound]										100%		zone of inhibition at 20 µM (Candida albicans [9]; [12]): 24 mm; MIC (Candida albicans [11]; microdilution): 2 µM (≈ 0.69 µg/mL)
COC(=O)c1cc([Se]C)ccc1N [Compound 14, methyl 2-amino-5-(methylselanyl) benzoate]	90.5%	91.3%	96%	3.57 ± 0.1 µM	24 mm	19 mm	21 mm	5.64 ± 0.3 µM	91%	100%	62.4 ± 3.6 µM	IC50 [7]: 18.67 ± 0.12 µM; MIC (Staphylococcus aureus [4]): 2 µM (≈ 0.488 µg/mL); MIC (Candida albicans [11]): 2 µM (≈ 0.488 µg/mL); IC50 [8]: 29.14 ± 0.2 µM; MIC (Escherichia coli [6]): 0.5 µM (≈ 0.122 µg/mL)
